What all share (assay type): biochemical
For one assay, the target named is PI3Kδ (Homo sapiens (Human), UniProt O00329). Put plainly: PI3K Enzyme Assay (Example A2), PI3Kδ. The settings on record: assay of Example A2, 1000 μM ATP. How it is done: (§1) PI3K isoforms α, β, δ and γ are purchased from Millipore (Bedford, Mass.).
(§2) The kinase reactions are conducted in clear-bottom 96-well plate from Thermo Fisher Scientific in a final volume of 24 μL. Inhibitors are first diluted serially in DMSO and added to the plate wells before the addition of other reaction components. The final concentration of DMSO in the assay is 0.5%. […] The reaction mixture is prepared containing 50 μM PIP2, kinase and varying concentration of inhibitors. […] Reactions are incubated for 180 minutes and terminated by the addition of 100 μL of 1 M potassium phosphate pH 8.0, 30 mM EDTA quench buffer. A 100 μL aliquot of the reaction solution are then transferred to 96-well Millipore MultiScreen IP 0.45 μm PVDF filter plate (The filter plate is prewetted with 200 μL 100% ethanol, distilled water, and 1 M potassium phosphate pH 8.0, respectively). […] After drying by aspiration and blotting, the plate is air dried in an incubator at 37° C. overnight. Packard TopCount adapter (Millipore) is then attached to the plate followed with addition of 120 μL Microscint 20 scintillation cocktail (Perkin Elmer) in each well. After the plate sealing, the radioactivity of the product is determined by scintillation counting on Topcount (Perkin-Elmer). […]

In a further assay the target is PI3Kγ (Homo sapiens (Human), UniProt P48736). Briefly: PI3K Enzyme Assay (Example A2), PI3Kγ. The settings on record: assay of Example A2, 1000 μM ATP. How it is done: as §1, §2
Chain of PI3Kγ (P48736 whole entry): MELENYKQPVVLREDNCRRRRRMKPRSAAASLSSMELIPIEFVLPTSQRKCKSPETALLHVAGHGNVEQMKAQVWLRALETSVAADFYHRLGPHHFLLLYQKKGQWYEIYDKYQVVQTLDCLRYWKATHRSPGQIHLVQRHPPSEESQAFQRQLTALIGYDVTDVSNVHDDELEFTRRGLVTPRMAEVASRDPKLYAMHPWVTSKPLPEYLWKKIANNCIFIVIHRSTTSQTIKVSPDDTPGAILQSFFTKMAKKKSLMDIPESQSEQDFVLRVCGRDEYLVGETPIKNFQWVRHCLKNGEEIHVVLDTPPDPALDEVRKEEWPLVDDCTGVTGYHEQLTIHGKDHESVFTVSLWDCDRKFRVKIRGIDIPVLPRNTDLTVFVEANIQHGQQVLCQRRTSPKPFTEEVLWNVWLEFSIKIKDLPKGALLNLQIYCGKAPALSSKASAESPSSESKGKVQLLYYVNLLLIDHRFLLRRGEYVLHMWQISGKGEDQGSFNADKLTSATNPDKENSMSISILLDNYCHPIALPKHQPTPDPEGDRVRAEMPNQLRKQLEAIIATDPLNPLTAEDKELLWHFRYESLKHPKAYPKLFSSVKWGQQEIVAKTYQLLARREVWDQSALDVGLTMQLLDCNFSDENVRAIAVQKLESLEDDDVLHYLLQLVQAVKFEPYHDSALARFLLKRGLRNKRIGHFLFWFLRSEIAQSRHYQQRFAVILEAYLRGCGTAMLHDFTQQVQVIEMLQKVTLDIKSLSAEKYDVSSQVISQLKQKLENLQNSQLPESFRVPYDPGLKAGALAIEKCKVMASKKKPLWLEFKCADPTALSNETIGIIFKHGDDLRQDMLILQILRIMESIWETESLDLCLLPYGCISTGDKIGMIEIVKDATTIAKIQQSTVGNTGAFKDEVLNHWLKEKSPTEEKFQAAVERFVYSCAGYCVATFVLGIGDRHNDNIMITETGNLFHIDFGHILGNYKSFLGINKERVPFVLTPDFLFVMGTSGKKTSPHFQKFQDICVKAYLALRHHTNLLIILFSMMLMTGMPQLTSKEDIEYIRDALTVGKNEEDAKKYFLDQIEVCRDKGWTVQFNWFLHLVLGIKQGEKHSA
The target in the next assay is PI3Kα (Homo sapiens (Human), UniProt P42336). Put plainly: PI3K Enzyme Assay (Example A2), PI3Kα. The settings on record: assay of Example A2, 1000 μM ATP. How it is done:
as §1, §2

A further assay deals with PI3Kβ (Homo sapiens (Human), UniProt P42338). Put plainly: PI3K Enzyme Assay (Example A2), PI3Kβ. The settings on record: assay of Example A2, 1000 μM ATP. How it is done: as §1, §2
Another assay concerns the target JAK1 (Homo sapiens (Human), UniProt P23458). Briefly: Assay A, JAK1 IC50 at 1 mM ATP. The settings on record: method of Assay A at 1 mM ATP; #3 data for enantiomer 1, #14 data for enantiomer 2.
Another assay has as its target JAK2 (Homo sapiens (Human), UniProt O60674). Put plainly: Assay A, JAK2 versus JAK1 (ratio). Conditions: ratio of IC50s, Assay A at 1 mM ATP.
In the next assay the target is PI3Kδ (p110δ/p85α) (Homo sapiens (Human), UniProt O00329). Briefly: PI3Kδ Scintillation Proximity Assay (Example A3). Conditions: assay of Example A3, 20 μM ATP, 20 μM PIP2. How it is done:
The kinase reaction was conducted in polystyrene 384-well matrix white plate from Thermo Fisher Scientific in a final volume of 25 μL. Inhibitors were first diluted serially in DMSO and added to the plate wells before the addition of other reaction components. The final concentration of DMSO in the assay was 0.5%. The PI3K assays were carried out at room temperature in 20 mM MOPS, pH 6.7, 10 mM MgCl2, 5 mM DTT and CHAPS 0.03%. […] IC50 determination was performed by fitting the curve of percent control activity versus the log of the inhibitor concentration using the GraphPad Prism 3.0 software.
In general terms: Scintillation proximity formats need no separation of bound from free tracer.

Molecules are shown by their SMILES.

As a reminder, the IC50 is the concentration at which inhibition is half-maximal. Read a low IC50 as inhibition by little substance.

Chain of JAK1 (P23458 whole entry, species assumed): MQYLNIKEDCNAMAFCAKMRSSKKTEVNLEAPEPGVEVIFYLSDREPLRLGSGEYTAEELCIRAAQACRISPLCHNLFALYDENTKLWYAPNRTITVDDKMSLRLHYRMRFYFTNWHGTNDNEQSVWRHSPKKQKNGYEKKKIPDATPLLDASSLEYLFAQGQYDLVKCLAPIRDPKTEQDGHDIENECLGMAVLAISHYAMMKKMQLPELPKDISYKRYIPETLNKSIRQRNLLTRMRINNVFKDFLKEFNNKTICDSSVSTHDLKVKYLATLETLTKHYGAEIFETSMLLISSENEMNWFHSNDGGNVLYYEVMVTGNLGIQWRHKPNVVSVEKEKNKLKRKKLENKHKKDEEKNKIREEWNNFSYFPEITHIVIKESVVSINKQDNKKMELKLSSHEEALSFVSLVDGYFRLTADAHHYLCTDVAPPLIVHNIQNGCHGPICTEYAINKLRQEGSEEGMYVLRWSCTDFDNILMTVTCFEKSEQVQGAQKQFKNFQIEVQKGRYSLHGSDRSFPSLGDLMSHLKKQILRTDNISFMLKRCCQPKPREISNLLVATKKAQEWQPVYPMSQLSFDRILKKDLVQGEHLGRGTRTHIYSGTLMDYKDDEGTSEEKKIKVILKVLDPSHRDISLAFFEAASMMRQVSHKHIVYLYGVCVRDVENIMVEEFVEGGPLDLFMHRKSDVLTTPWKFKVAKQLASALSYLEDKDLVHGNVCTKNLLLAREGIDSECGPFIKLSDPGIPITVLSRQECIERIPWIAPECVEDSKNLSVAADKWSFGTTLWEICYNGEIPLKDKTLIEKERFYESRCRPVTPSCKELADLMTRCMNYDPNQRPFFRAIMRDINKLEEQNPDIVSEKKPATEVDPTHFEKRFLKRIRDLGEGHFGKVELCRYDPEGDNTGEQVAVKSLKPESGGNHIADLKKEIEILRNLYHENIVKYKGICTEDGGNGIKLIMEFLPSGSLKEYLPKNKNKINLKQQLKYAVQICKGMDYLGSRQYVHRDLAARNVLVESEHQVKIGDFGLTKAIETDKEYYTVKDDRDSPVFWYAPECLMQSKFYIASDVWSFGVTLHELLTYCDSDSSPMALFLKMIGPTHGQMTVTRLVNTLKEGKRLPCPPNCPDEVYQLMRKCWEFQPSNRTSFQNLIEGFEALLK
Chain of JAK2 (O60674 whole entry, species assumed): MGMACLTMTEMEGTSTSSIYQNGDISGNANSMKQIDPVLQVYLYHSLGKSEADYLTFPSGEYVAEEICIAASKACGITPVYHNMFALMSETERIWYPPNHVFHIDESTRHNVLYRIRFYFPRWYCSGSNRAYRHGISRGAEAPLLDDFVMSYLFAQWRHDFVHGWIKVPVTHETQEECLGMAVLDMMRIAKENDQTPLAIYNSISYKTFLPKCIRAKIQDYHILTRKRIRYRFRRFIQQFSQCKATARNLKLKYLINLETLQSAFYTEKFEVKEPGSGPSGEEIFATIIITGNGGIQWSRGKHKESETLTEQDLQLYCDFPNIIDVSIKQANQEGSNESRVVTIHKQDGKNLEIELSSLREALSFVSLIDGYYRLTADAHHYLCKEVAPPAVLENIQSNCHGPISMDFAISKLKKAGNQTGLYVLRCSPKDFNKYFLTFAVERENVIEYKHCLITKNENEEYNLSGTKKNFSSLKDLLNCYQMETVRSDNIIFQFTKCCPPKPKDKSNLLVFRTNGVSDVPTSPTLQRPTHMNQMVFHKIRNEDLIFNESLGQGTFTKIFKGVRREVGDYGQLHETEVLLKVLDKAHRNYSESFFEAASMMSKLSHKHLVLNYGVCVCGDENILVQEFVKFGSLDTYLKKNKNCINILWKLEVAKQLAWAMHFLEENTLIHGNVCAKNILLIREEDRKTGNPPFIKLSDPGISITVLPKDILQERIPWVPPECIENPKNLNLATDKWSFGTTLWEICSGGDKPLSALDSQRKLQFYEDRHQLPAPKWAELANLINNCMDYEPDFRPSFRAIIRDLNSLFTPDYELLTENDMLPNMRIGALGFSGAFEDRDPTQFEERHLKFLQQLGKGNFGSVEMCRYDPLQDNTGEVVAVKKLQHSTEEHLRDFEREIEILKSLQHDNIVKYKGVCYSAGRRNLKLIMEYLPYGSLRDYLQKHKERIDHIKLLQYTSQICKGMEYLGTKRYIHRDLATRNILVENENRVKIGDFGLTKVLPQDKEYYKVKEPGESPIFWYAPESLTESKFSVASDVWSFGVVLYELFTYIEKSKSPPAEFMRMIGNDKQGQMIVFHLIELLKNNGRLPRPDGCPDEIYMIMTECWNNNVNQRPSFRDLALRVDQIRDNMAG

On to `CCOc1c([C@H](C)n2nc(C)c3c(N)ncnc32)cc(Cl)c(F)c1[C@@H]1CNC(=O)C1.Cl` [(R)-4-(3-((S)-1-(4-amino-3-methyl-1H-pyrazolo[3,4-d]pyrimidin-1-yl)ethyl)-5-chloro-2-ethoxy-6-fluorophenyl)pyrrolidin-2-one hydrochloride], for which the “selectivity for PI3Kδ” value on PI3Kδ is on record as “selective inhibitor for PI3Kδ”. In addition, the “fold selectivity for PI3Kδ over PI3Kγ” value at PI3Kγ is over 100 fold. Besides, at PI3Kα, the “fold selectivity for PI3Kδ over PI3Kα” value is over 100 fold. In addition, the “fold selectivity for PI3Kδ over PI3Kβ” value at PI3Kβ is over 100 fold.
For the compound `N#CCC1(n2cc(-c3ncnc4[nH]ccc34)cn2)CN([C@H]2CC[C@@H](Oc3cc(CN4CC[C@H](O)C4)cc(C(F)(F)F)n3)CC2)C1` [Example 22, {1-(cis-4-{[4-{[(3S)-3-hydroxypyrrolidin-1-yl]methyl}-6-(trifluoromethyl)pyridin-2-yl]oxy}cyclohexyl)-3-[4-(7H-pyrrolo[2,3-d]pyrimidin-4-yl)-1H-pyrazol-1-yl]azetidin-3-yl}acetonitrile], the IC50 on JAK1 was under 10 nM. In addition, the JAK2/JAK1 on JAK2 is given as over 10.
On the same counts, the results for `C[C@@H](CO)NCc1cc(OC2CCN([C@H]3C[C@](CC#N)(n4cc(-c5ncnc6[nH]ccc56)cn4)C3)CC2)nc(C(F)(F)F)c1` [Example 23, {trans-3-(4-{[4-({[(1S)-2-hydroxy-1-methylethyl]amino}methyl)-6-(trifluoromethyl)pyridin-2-yl]oxy}piperidin-1-yl)-1-[4-(7H-pyrrolo[2,3-d]pyrimidin-4-yl)-1H-pyrazol-1-yl]cyclobutyl}acetonitrile] are under 10 nM and over 10.
The matching figures for `C[C@@H](O)CNCc1cc(OC2CCN([C@H]3C[C@](CC#N)(n4cc(-c5ncnc6[nH]ccc56)cn4)C3)CC2)nc(C(F)(F)F)c1` [Example 24, {trans-3-(4-{[4-({[(2R)-2-hydroxypropyl]amino}methyl)-6-(trifluoromethyl)pyridin-2-yl]oxy}piperidin-1-yl)-1-[4-(7H-pyrrolo[2,3-d]pyrimidin-4-yl)-1H-pyrazol-1-yl]cyclobutyl}acetonitrile]: under 10 nM and over 10.
The matching figures for `C[C@H](O)CNCc1cc(OC2CCN([C@H]3C[C@](CC#N)(n4cc(-c5ncnc6[nH]ccc56)cn4)C3)CC2)nc(C(F)(F)F)c1` [Example 25, {trans-3-(4-{[4-({[(2S)-2-hydroxypropyl]amino}methyl)-6-(trifluoromethyl)pyridin-2-yl]oxy}piperidin-1-yl)-1-[4-(7H-pyrrolo[2,3-d]pyrimidin-4-yl)-1H-pyrazol-1-yl]cyclobutyl}acetonitrile]: under 10 nM and over 10.
Compound `N#CC[C@]1(n2cc(-c3ncnc4[nH]ccc34)cn2)C[C@H](N2CCC(Oc3cc(CCO)cc(C(F)(F)F)n3)CC2)C1` [Example 26, {trans-3-(4-{[4-(2-hydroxyethyl)-6-(trifluoromethyl)pyridin-2-yl]oxy}piperidin-1-yl)-1-[4-(7H-pyrrolo[2,3-d]pyrimidin-4-yl)-1H-pyrazol-1-yl]cyclobutyl}acetonitrile] registered an IC50 against JAK1 of under 10 nM. In addition, at JAK2, the JAK2/JAK1 is on record as over 10.
`CCOc1c([C@H](C)n2nc(C)c3c(N)ncnc32)cc(Cl)c(F)c1[C@@H]1CNC(=O)C1` [compound of Formula I, (R)-4-(3-((S)-1-(4-amino-3-methyl-1H-pyrazolo[3,4-d]pyrimidin-1-yl)ethyl)-5-chloro-2-ethoxy-6-fluorophenyl)pyrrolidin-2-one] showed an IC50 on PI3Kδ (p110δ/p85α) of at most 10 nM.

(Values after patent publication US10336759B2, “Salts and processes of preparing a PI3K inhibitor” (Incyte Corporation, priority 2015, dated 2019).)
